These results are taken from patent publication US20260364184A1, “COMPOUND BASED ON OXOISOINDOLINYL-SUBSTITUTED TETRAHYDROPYRIMIDINE-DIONE AND USE THEREOF” (GLUETACS THERAPEUTICS (SHANGHAI) CO., LTD., priority 2023, published 2026).

The structures appear in SMILES notation.

Assay type in all cases: cell-based
Experiment [1] relates to Human Multiple myeloma cell line (MM.1S). Description: Inhibition of MM.1S cell proliferation (CellTiter luminescent viability). The conditions noted are these: Homo sapiens, MM1.S, Table IA5, IRAK4 inhibitor-based, 96 hours; for inhibition at 0.01 µM: 10 nM, read-out: Inhibition Rate at 10 nM (%); for inhibition at 0.5 µM: 500 nM, read-out: Inhibition Rate at 500 nM (%). In a few lines:
(§1)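 IC50 is fitted from luminescent viability (CellTiter-Meiluncell) curves. Nine-point, 5-fold dilution series (top stock 2000 μM) are added at 0.5 μL per 100 μL medium to cells plated the day before, with growth at 37 °C and 5% CO2.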

Experiment [2] relates to Human B-Cell Lymphoma Cells (RPMI-8226). Description: Inhibition of RPMI-8226 cell proliferation (CellTiter luminescent viability). The conditions noted are these: Table IA4, IRAK4 inhibitor-based, RPMI-8226, 500 nM, 96 hours, read-out: Inhibition Rate at 500 nM (%). The protocol:
(§2) The tumor cells used herein were cultured in a cell culture medium listed in table 3 at 37 °C in an incubator with 5% CO2. Prior to experimentation, all cell lines used were correctly identified by STR profiling, and tested negative for mycoplasma contamination using a mycoplasma detection kit through routine screenings.
(§3) The IC50 values of the compounds of the present disclosure (including the compounds in Table 1, Table 2, and Examples 1-468) were determined using the CellTiter-Meiluncell Luminescent Cell Viability Assay Kit from Dalian Meilun Biotech Co., Ltd. The detailed procedure is as follows: Tumor cells were seeded in 96-well cell culture plates at the densities specified in Table 4. On the following day, the test compounds of the present disclosure were subjected to serial dilution. The dilution can be performed according to one of the following two methods: • (1) The first dilution method: The test compounds of the present disclosure (including the compounds in Table 1, Table 2, and Examples 1-468) were subjected to 5-fold serial dilutions starting from a highest concentration of 2000 μM, resulting in a total of 9 concentrations from high to low (2000, 400, 80, 16, 3.2, 0.64, 0.128, 0.0256, 0.00512 μM). Subsequently, 0.5 μL of the test compound dilution was transferred into the 96-well plate containing the cells, with each well containing 100 μL of cell culture medium. […] Into the 96-well plate, the diluted test compounds and corresponding detection reagents were added, resulting in final test compound concentrations of 500 nM and 10 nM, respectively. The experimental procedure is described below using the diluted 2 μM test compound as an example.
(§4) 0.5 μL of the aforementioned diluted compound of the present disclosure (including the compounds in Table 1, Table 2, and Examples 1-468) was added to the seeded cells in 100 μL of medium, yielding a final test compound concentration of 10 nM. After the cells were treated with the compounds of the present disclosure for a specified period, the cell viability assay reagent was added to the culture medium according to the kit's instructions to determine cell viability. […] All controls were treated using the same procedure as the compounds of the present disclosure. The growth inhibition curves for the compounds of the present disclosure were plotted using Prism GraphPad software, and the IC50 values were calculated therefrom.

Assay in experiment [3]: as above
The conditions noted are these: Homo sapiens; Table IA4, IRAK4 inhibitor-based; RPMI-8226, 10 nM, 96 hours; read-out: Inhibition Rate at 10 nM (%). The protocol:
as §2, §3, §4

For experiment [4], the system named is Human Acute T Lymphoblastic Leukemia Cells (Molt-4). As to the kind of experiment: Inhibition of Molt-4 cell proliferation (CellTiter luminescent viability). The conditions noted are these: Homo sapiens, MOLT-4, 96 h, Table IA2, IRAK4 inhibitor-based, 96 hours; for inhibition at 0.01 µM: Molt-4, 10 nM, read-out: Inhibition Rate at 10 nM (%); for inhibition at 0.5 µM: Molt-4, 500 nM, read-out: Inhibition Rate at 500 nM (%).

Experiment [5] deals with Human myeloid monocytic leukemia cell line (MV-4-11). Description: Inhibition of MV-4-11 cell proliferation (CellTiter luminescent viability). The conditions noted are these: Homo sapiens, MV4-11, Table IA3, IRAK4 inhibitor-based, 96 hours; for inhibition at 0.01 µM: MV-4-11, 10 nM, read-out: Inhibition Rate at 10 nM (%); for inhibition at 0.5 µM: MV-4-11, 500 nM, read-out: Inhibition Rate at 500 nM (%). Put shortly:
as §1

The next experiment addresses T1, IRAK4 (Homo sapiens, UniProt Q9NWZ3).
T1 construct: expression of target proteins in cells; endogenous in cells
T1 sequence (Q9NWZ3 1-460): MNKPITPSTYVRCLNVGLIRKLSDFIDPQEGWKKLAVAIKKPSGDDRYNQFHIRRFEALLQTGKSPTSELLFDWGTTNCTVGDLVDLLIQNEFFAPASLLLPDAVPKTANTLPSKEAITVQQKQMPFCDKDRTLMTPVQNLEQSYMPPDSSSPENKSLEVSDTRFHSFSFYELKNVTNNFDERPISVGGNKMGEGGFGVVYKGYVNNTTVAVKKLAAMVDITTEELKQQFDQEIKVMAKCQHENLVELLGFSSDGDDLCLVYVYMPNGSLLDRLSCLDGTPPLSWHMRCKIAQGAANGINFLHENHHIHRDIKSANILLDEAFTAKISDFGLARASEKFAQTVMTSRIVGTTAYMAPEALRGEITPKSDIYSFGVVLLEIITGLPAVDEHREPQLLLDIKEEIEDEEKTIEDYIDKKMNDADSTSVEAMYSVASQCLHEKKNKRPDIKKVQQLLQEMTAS
Description: Western blot degradation of IRAK4. The conditions noted are these: hPBMC Cell; 24 hours. In a few lines: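 Compound-treated cells harvested; lysates denatured 5 min at 95 °C, run on SDS-PAGE, blotted to NC membrane, blocked 1 h RT, probed with antibodies. Densitometry vs DMSO → DC50; target normalised to internal control → % remaining, degradation = 1 − remaining.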
In general terms: In western blotting, separated proteins are transferred to a membrane and probed.

As to `O=C1CCN(N2Cc3cc(CN4CCC(n5cc(NC(=O)c6coc(-c7ccnc(NCC(F)(F)F)c7)n6)c(C(F)F)n5)CC4)ccc3C2=O)C(=O)N1` [GT-05184, N-(3-(difluoromethyl)-1-(1-((2-(2,4-dioxotetrahydropyrimidin-1(2H)-yl)-1-oxoisoindolin-5-yl)methyl)piperidin-4-yl)-1H-pyrazol-4-yl)-2-(2-((2,2,2-trifluoroethyl)amino)pyridin-4-yl) oxazole-4-carboxamide], the inhibition (usually the share of the control response that was lost under treatment) at 0.01 µM in experiment [1] was 5 to 10%; in experiment [3], 20 to 25%; in experiment [4], 3 to 7%; in experiment [5] it was 50 to 60%. Moreover, the inhibition at 0.5 µM in experiment [1], in experiment [2], in experiment [4] and in experiment [5] was 80 to 100% throughout.

Consider `O=C1CCN(N2C(=O)c3cccc(N4CCC(CN5CCC(n6cc(NC(=O)c7cnn8ccc(N9CCOCC9)nc78)c(C(F)F)n6)CC5)CC4)c3C2=O)C(=O)N1` [GT-05224, N-(3-(difluoromethyl)-1-(1-((1-(2-(2,4-dioxotetrahydropyrimidin-1(2H)-yl)-1,3-dioxoisoindolin-4-yl)piperidin-4-yl)methyl)piperidin-4-yl)-1H-pyrazol-4-yl)-5-morpholinopyrazolo[1,5-a]pyrimidine-3-carboxamide], for which the inhibition at 0.01 µM is 15 to 20% in experiment [1], 20 to 25% in experiment [3], 0 to 3% in experiment [4] and 50 to 60% in experiment [5]. Besides, the inhibition at 0.5 µM lay within 60 to 80% in experiment [1], 30 to 40% in experiment [2], 80 to 100% in experiment [4] and 80 to 100% in experiment [5].

For `O=C1CCN(N2C(=O)c3cc(F)c(N4CCN(C[C@H]5CC[C@H](n6cc(NC(=O)c7cnn8ccc(N9C[C@H]%10C[C@@H]9CO%10)nc78)c(C(F)F)n6)CC5)CC4)cc3C2=O)C(=O)N1` [GT-05239, 5-((1R,4R)-2-oxa-5-azabicyclo[2.2.1]heptan-5-yl)-N-(3-(difluoromethyl)-1-((1r,4R)-4-((4-(2-(2,4-dioxotetrahydropyrimidin-1(2H)-yl)-6-fluoro-1,3-dioxoisoindolin-5-yl)piperazin-1-yl)methyl)cyclohexyl)-1H-pyrazol-4-yl)pyrazolo[1,5-a]pyrimidine-3-carboxamide], at IRAK4, the “Degradation of substrate protein IRAK4 (substrate protein remaining %)” value (“Degradation … (substrate protein remaining %)” below) was “A (0%≤substrate protein remaining %≤80%)”. In addition, the inhibition at 0.5 µM in experiment [2] lay within 20 to 25%. The inhibition at 0.01 µM in experiment [3] fell in the range of 30 to 40%.

On to `Cc1cc(-c2nc(C(=O)Nc3cc4oc(N5CCN(CC6CCN(c7cccc8c7C(=O)N(N7CCC(=O)NC7=O)C8=O)CC6)CC5)nc4nc3N3CC[C@@H](O)C3)co2)ccn1` [GT-05806, (R)—N-(2-(4-((1-(2-(2,4-dioxotetrahydropyrimidin-1(2H)-yl)-1,3-dioxoisoindolin-4-yl)piperidin-4-yl)methyl)piperazin-1-yl)-5-(3-hydroxypyrrolidin-1-yl)oxazolo[4,5-b]pyridin-6-yl)-2-(2-methylpyridin-4-yl) oxazole-4-carboxamide], for which the “Degradation … (substrate protein remaining %)” value at IRAK4 was “A (0%≤substrate protein remaining %≤80%)”. Besides, the results for the inhibition at 0.5 µM in experiment [2] and in experiment [5] were 25 to 30% and 80 to 100%, respectively. In addition, the results for the inhibition at 0.01 µM in experiment [3] and in experiment [5] were 20 to 25% and 45 to 50%, respectively.

With `CC(C)(O)c1cc2nc(C3CCN(CC4CCN(c5ccc6c(c5)C(=O)N(N5CCC(=O)NC5=O)C6=O)CC4)CC3)sc2cc1NC(=O)c1cccc(C(F)(F)F)n1` [GT-05819, N-(2-(1-((1-(2-(2,4-dioxotetrahydropyrimidin-1(2H)-yl)-1,3-dioxoisoindolin-5-yl)piperidin-4-yl)methyl)piperidin-4-yl)-5-(2-hydroxypropan-2-yl)benzo[d]thiazol-6-yl)-6-(trifluoromethyl) picolinamide], the “Degradation … (substrate protein remaining %)” value at IRAK4 is “A (0%≤substrate protein remaining %≤80%)”. Besides, the inhibition at 0.5 µM in experiment [2] lay in the range of 25 to 30%. Besides, the inhibition at 0.01 µM in experiment [3] was 15 to 20%.

Take `O=C1CCN(N2C(=O)c3ccc(N4CC5CCC(C4)N5C[C@H]4CC[C@H](n5cc(NC(=O)c6cnn7ccc(N8C[C@H]9C[C@@H]8CO9)nc67)c(C(F)F)n5)CC4)cc3C2=O)C(=O)N1` [GT-05825, 5-((1R,4R)-2-oxa-5-azabicyclo[2.2.1]heptan-5-yl)-N-(3-(difluoromethyl)-1-((1r,4R)-4-((3-(2-(2,4-dioxotetrahydropyrimidin-1(2H)-yl)-1,3-dioxoisoindolin-5-yl)-3,8-diazabicyclo[3.2.1]octan-8-yl)methyl)cyclohexyl)-1H-pyrazol-4-yl)pyrazolo[1,5-a]pyrimidine-3-carboxamide]: at IRAK4, the “Degradation … (substrate protein remaining %)” value is given as “A (0%≤substrate protein remaining %≤80%)”. Also, the inhibition at 0.5 µM in experiment [2] is 25 to 30%. The inhibition at 0.01 µM in experiment [3] was 15 to 20%.

For the molecule `COc1cc2nn([C@H]3CC[C@H](CN4C5CC4CN(c4ccc6c(c4)C(=O)N(N4CCC(=O)NC4=O)C6=O)C5)CC3)cc2cc1NC(=O)c1cccc(C(F)(F)F)n1` [GT-08653, N-(2-((1r,4r)-4-((3-(2-(2,4-dioxotetrahydropyrimidin-1(2H)-yl)-1,3-dioxoisoindolin-5-yl)-3,6-diazabicyclo[3.1.1]heptan-6-yl)methyl)cyclohexyl)-6-methoxy-2H-indazol-5-yl)-6-(trifluoromethyl) picolinamide], the “Degradation … (substrate protein remaining %)” value on IRAK4 is “A (0%≤substrate protein remaining %≤80%)”. Besides, the inhibition at 0.5 µM in experiment [2] lay within 25 to 30%. In addition, in experiment [3], the inhibition at 0.01 µM was 15 to 20%.

In the case of `COc1cc2nn([C@H]3CC[C@H](CN4CCN(c5cccc6c5C(=O)N(N5CCC(=O)NC5=O)C6=O)CC4)CC3)cc2cc1NC(=O)c1cccc(C(F)(F)F)c1` [GT-08668, N-(2-((1r,4r)-4-((4-(2-(2,4-dioxotetrahydropyrimidin-1(2H)-yl)-1,3-dioxoisoindolin-4-yl)piperazin-1-yl)methyl)cyclohexyl)-6-methoxy-2H-indazol-5-yl)-3-(trifluoromethyl)benzamide], the “Degradation … (substrate protein remaining %)” value on IRAK4 is “A (0%≤substrate protein remaining %≤80%)”. Also, the inhibition at 0.5 µM in experiment [2] fell in the range of 30 to 40%. The inhibition at 0.01 µM in experiment [3] is 20 to 25%.
